In patent US5965718A, “Analogs of sarcodictyin and eleutherobin” (priority 1998, dated 1999):
“Also recorded” adds a separate entry of the source.

What was measured:
[1] = test system: tubulin; ovarian cancer cells (1A9, 1A9PTX10, 1A9PTX22); settings: in words; for biological activity (tubulin polymerization and/or cytotoxicity), SAR statement: compared with natural products 7 and 8; for biological activity on modification of the alcohol component of the ester group: compared with the methyl ester (compound 600)
Protocol: (§1) FIG. 21 tabulates cytotoxicity data of sarcodictyins with the following tubulin polymerization and cytotoxicity properties of sarcodictyins: (a) The tubulin polymerization measurements were performed at 37° C. except for adjustments in drug concentration ([…]) and incubation time (90 min). (b) The cytotoxicity experiments were carried out as previously described (Giannakakou et al. J. Biol. Chem. 1995, 272, 17118-17125; Nicolaou et al. Angew. Chem. Int. Ed. Engl. 1997, 36, 2097-2103).
(§2) The synthesized sarcodictyin library (shown in FIG. 20) was screened for induction of tubulin polymerization using the filtration calorimetric assay and […] at 37° C. (results are listed in FIG. 20; Bollag et al. Cancer Res. 1995, 55, 2325-2333). These investigations were then followed by cytotoxicity studies with ovarian cancer cells (1A9) including two taxol-resistant lines (1A9PTX10 and 1A9PTX22; Giannakakou et al. J. Biol. Chem. 1995, 272, 17118-17125). The data reveal a number of important structure activity relationships (SARs).

[2] = test system: ovarian cancer cells (1A9); type: cell-based; settings: 1A9 and taxol-resistant lines; in words, compared with natural substances 7 and 8; figures only in FIG. 21
Protocol: as §1, §2

[3] = test system: taxol-resistant lines (1A9PTX10 and 1A9PTX22); test: cytotoxicity against taxol-resistant tumor cell lines; type: cell-based; settings: in words
Protocol: as §1, §2

tubulin = test: induction of tubulin polymerization, filtration calorimetric assay; type: biochemical; settings: 100 m compound at 37° C.; in words, compared with sarcodictyins A (7) and B (8); figures only in FIG. 20
Protocol: as §1, §2

| SMILES | biological activity (tubulin polymerization and/or cytotoxicity), SAR statement [1] | cytotoxicity potency [2] | cytotoxicity / biological activity against the taxol-resistant cell lines [3] | tubulin polymerization properties / potencies (tubulin) | biological activity on modification of the alcohol component of the ester group [1] |
| --- | --- | --- | --- | --- | --- |
| COC(=O)/C1=C/[C@@H]2[C@@H](C(C)C)CC=C(C)[C@@H]2C[C@H](OC(=O)/C=C/c2ccccn2)[C@]2(C)C=C[C@@]1(OC)O2 [Compound 480] | considerable loss of activity |  |  |  |  |
| COC(=O)/C1=C/[C@@H]2[C@@H](C(C)C)CC=C(C)[C@@H]2C[C@H](OC(=O)/C=C/c2csc(C)n2)[C@]2(C)C=C[C@@]1(OC)O2 [Compound 490] | considerable loss of activity |  |  |  |  |
| CCOC(=O)/C1=C/[C@@H]2[C@@H](C(C)C)CC=C(C)[C@@H]2C[C@H](OC(=O)/C=C/c2coc(C)n2)[C@]2(C)C=C[C@@]1(OC)O2 [Compound 500] | considerable loss of activity |  |  |  |  |
| COC(=O)C1=CC2C(CC(OC(=O)/C=C/c3cn(C)cn3)C3(C)C=CC1(OC)O3)C(C)=CCC2C(C)C (stereo not drawn) [Compound 600] | equal or superior biological activities | potencies comparable or higher that those of the natural substances | Particularly striking; also recorded: enhanced biological activity | superior tubulin polymerization properties to those of either sarcodictyins A (7) or B (8) |  |
| CCOC(=O)C1=CC2C(CC(OC(=O)/C=C/c3cn(C)cn3)C3(C)C=CC1(OC)O3)C(C)=CCC2C(C)C (stereo not drawn) [Compound 610] | equal or superior biological activities | potencies comparable or higher that those of the natural substances | Particularly striking; also recorded: enhanced biological activity | not always in line with their cytotoxicity effects | enhancement of the biological activity |
| CO[C@]12C=C[C@](C)(O1)[C@@H](OC(=O)/C=C/c1cn(C)cn1)C[C@H]1C(C)=CC[C@H](C(C)C)[C@H]1/C=C\2C(=O)OCCCl [Compound 630] | equal or superior biological activities | potencies comparable or higher that those of the natural substances |  |  | reversal of the trend |
| CO[C@]12C=C[C@](C)(O1)[C@@H](OC(=O)/C=C/c1cn(C)cn1)C[C@H]1C(C)=CC[C@H](C(C)C)[C@H]1/C=C\2C(=O)OCCCCc1ccccc1 [Compound 660] |  | cytotoxicity comparable to, or better than, the natural products |  | modest |  |
| CCCCOC(=O)/C1=C/[C@@H]2[C@@H](C(C)C)CC=C(C)[C@@H]2C[C@H](OC(=O)/C=C/c2cn(C)cn2)[C@]2(C)C=C[C@@]1(OC)O2 [Compound 670] |  |  | Particularly striking |  |  |
| CCCOC(=O)/C1=C/[C@@H]2[C@@H](C(C)C)CC=C(C)[C@@H]2C[C@H](OC(=O)/C=C/c2cn(C)cn2)[C@]2(C)C=C[C@@]1(OC)O2 [Compound 680] |  |  | Particularly striking |  | enhancement of the biological activity |
| CO[C@]12C=C[C@](C)(O1)[C@@H](OC(=O)/C=C/c1cn(C)cn1)C[C@H]1C(C)=CC[C@H](C(C)C)[C@H]1/C=C\2C(=O)OCCOCc1ccccc1 [Compound 690] |  | cytotoxicity comparable to, or better than, the natural products |  | modest |  |
| C=CCOC(=O)/C1=C/[C@@H]2[C@@H](C(C)C)CC=C(C)[C@@H]2C[C@H](OC(=O)/C=C/c2cn(C)cn2)[C@]2(C)C=C[C@@]1(OC)O2 [Compound 700] |  |  |  | not always in line with their cytotoxicity effects | enhancement of the biological activity |
| CO[C@]12C=C[C@](C)(O1)[C@@H](OC(=O)/C=C/c1cn(C)cn1)C[C@H]1C(C)=CC[C@H](C(C)C)[C@H]1/C=C\2C(=O)OCCC(C)C [Compound 710] |  |  |  |  | reversal of the trend |
| COC(OC)/C1=C/[C@@H]2[C@@H](C(C)C)CC=C(C)[C@@H]2C[C@H](OC(=O)/C=C/c2cn(C)cn2)[C@]2(C)C=C[C@@]1(OC)O2 [Compound 730] |  | potencies comparable or higher that those of the natural substances | Particularly striking |  |  |
| CCCOC(=O)/C1=C/[C@@H]2[C@@H](C(C)C)CC=C(C)[C@@H]2C[C@H](OC(=O)/C=C/c2cn(C)cn2)[C@]2(C)C=C[C@@]1(OCC(F)(F)F)O2 [Compound 840] |  | overall decrease of cytotoxicity |  |  |  |
| CCO[C@]12C=C[C@](C)(O1)[C@@H](OC(=O)/C=C/c1cn(C)cn1)C[C@H]1C(C)=CC[C@H](C(C)C)[C@H]1/C=C\2C(=O)OC [Compound 850] | equal or superior biological activities | potencies comparable or higher that those of the natural substances | Particularly striking | superior tubulin polymerization properties to those of either sarcodictyins A (7) or B (8) |  |
| CO[C@]12C=C[C@](C)(O1)[C@@H](OC(=O)/C=C/c1cn(C)cn1)C[C@H]1C(C)=CC[C@H](C(C)C)[C@H]1/C=C\2C(=O)OCc1c2ccccc2cc2ccccc12 [Compound 920] | equal or superior biological activities |  | Particularly striking | modest |  |
| COC(=O)/C1=C/[C@@H]2[C@@H](C(C)C)CC=C(C)[C@@H]2C[C@H](OC(=O)/C=C/c2ccccc2)[C@]2(C)C=C[C@@]1(OC)O2 [Compound 990] | only negligible biological activity |  |  |  |  |
| COC(=O)/C1=C/[C@@H]2[C@@H](C(C)C)CC=C(C)[C@@H]2C[C@H](OC(=O)Nc2ccccc2)[C@]2(C)C=C[C@@]1(OC)O2 [Compound 1010] | complete loss of activity |  |  |  |  |
| COC(=O)/C1=C/[C@@H]2[C@@H](C(C)C)CC=C(C)[C@@H]2C[C@H](OC(C)=O)[C@]2(C)C=C[C@@]1(OC)O2 [Compound 1070] | complete loss of activity |  |  |  |  |
| CO[C@]12C=C[C@](C)(O1)[C@@H](OC(=O)/C=C/c1cn(C)cn1)C[C@H]1C(C)=CC[C@H](C(C)C)[C@H]1/C=C\2CO[C@@H]1OC[C@@H](O)[C@@H](O)[C@@H]1OC(C)=O [eleutherobin] | potent biological actions |  |  |  |  |
